According to patent publication US8168651B2, “Protein kinase modulators” (Cylene Pharmaceuticals, Inc., priority 2008, dated 2012):

What was measured:
K-562 = assay: Cell proliferation modulatory activity, K-562; assay type: cell-based; settings: Homo sapiens, K562; Table 45; read-out: K-562 IC50
[1] = tested on: MiaPaca human pancreatic carcinoma cells; assay: Cell-proliferation assay using Alamar Blue dye; assay type: cell-based; settings: MIA PaCa-2, Table 45
Method: (§1) A representative cell-proliferation assay protocol using Alamar Blue dye (stored at 4° C., use 20 ul per well) is described hereafter.
(§2) • a. Split and trypsinize cells. • b. Count cells using hemocytometer. • c. Plate 4,000-5,000 cells per well in 100 μl of medium and seed into a 96-well plate according to the following plate layout. Add cell culture medium only to wells B10 to B12. Wells B1 to B9 have cells but no compound added.
(§3) • d. Add 100 μl of 2× drug dilution to each well in a concentration shown in the plate layout above. At the same time, add 100 μl of media into the control wells (wells B10 to B12). Total volume is 200 μl/well. • e. Incubate four (4) days at 37° C., 5% CO2 in a humidified incubator. • f. Add 20 μl Alamar Blue reagent to each well. • g. Incubate for four (4) hours at 37° C., 5% CO2 in a humidified incubator. • h. Record fluorescence at an excitation wavelength of 544 nm and emission wavelength of 590 nm using a microplate reader.
(§4) In the assays, cells are cultured with a test compound for approximately four days, the dye then is added to the cells and fluorescence of […] dye is detected after approximately four hours. Different types of cells can be utilized in the assays (e.g., HCT-116 human colorectal carcinoma cells, PC-3 human prostatic cancer cells and MiaPaca human pancreatic carcinoma cells). Anti-proliferative effects of representative compounds are provided hereafter

PIM2 = PIM2 (Homo sapiens (Human), UniProt Q9P1W9); assay: PIM2 IC50; assay type: biochemical; settings: Table 45
Sequence of PIM2 (Q9P1W9 whole entry): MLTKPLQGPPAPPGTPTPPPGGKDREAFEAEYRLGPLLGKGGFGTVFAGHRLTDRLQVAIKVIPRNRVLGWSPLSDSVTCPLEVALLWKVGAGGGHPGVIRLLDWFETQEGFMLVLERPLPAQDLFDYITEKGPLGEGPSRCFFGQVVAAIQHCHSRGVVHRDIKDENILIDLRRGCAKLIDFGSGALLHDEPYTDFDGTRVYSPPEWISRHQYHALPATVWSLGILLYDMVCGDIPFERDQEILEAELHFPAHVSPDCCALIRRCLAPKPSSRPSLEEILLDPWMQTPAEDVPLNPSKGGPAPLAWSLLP

MV-4-11 = assay: Cell proliferation modulatory activity, MV-4-11; assay type: cell-based; settings: Homo sapiens, MV4-11; Table 45; read-out: MV-4-11 IC50
recombinant human PIM1 = recombinant human PIM1 (Homo sapiens (Human), UniProt P11309); assay: PIM-1 kinase activity in cell-free in vitro assay; assay type: biochemical; settings: Table 45
Sequence of recombinant human PIM1 (P11309 whole entry): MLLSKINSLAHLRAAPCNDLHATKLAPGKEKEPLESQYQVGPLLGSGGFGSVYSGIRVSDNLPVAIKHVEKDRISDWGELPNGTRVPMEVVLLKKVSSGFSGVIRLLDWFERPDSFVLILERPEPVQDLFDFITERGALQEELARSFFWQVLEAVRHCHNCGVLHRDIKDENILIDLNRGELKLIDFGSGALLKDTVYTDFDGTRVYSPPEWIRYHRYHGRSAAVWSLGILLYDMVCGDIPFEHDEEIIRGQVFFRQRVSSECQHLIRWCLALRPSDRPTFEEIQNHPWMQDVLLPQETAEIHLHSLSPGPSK

MDAMB231 [2] = assay: MDAMB231 IC50; assay type: cell-based; settings: Homo sapiens, MDA-MB-231; Table 45
phosphoBAD ser 112 = phosphoBAD ser 112 IC50; assay type: cell-based; settings: read-out: phosphoBAD ser 112 IC50; Table 45
MDAMB231 [3] = assay: Cell-proliferation assay using Alamar Blue dye; assay type: cell-based; settings: Homo sapiens, MDA-MB-231
Method: as §1
96-Well Plate Setup and Compound Treatment
as §2, §3, §4

| Structure (SMILES) | IC50 (K-562) [nM] | IC50 [1] [nM] | IC50 (PIM2) [nM] | IC50 (MV-4-11) [nM] | IC50 (recombinant human PIM1) [nM] | IC50 (MDAMB231 [2]) [nM] | IC50 (phosphoBAD ser 112) [nM] | IC50 (MDAMB231 [3]) [µM] |
| --- | --- | --- | --- | --- | --- | --- | --- | --- |
| c1cc(-c2nc[nH]n2)c2nc(NC3CC3)c3ccncc3c2c1 | < 100 | < 1000 | < 100 | < 100 | < 100 | < 1000 | < 100 | – |
| Clc1ccc(Nc2nc3c(-c4nc[nH]n4)cccc3c3cnccc23)cc1 | < 500 | > 10000 | < 500 | < 500 | < 100 | > 10000 | < 5000 | – |
| COc1cccc(CNc2nc3c(-c4nc[nH]n4)cccc3c3cnccc23)c1 | < 500 | > 10000 | < 500 | < 500 | < 100 | > 10000 | < 5000 | – |
| CN(c1ccccc1Cl)c1nc2c(-c3nnc[nH]3)cccc2c2cnccc12 | < 5000 | – | < 1000 | < 100 | < 100 | > 10000 | < 5000 | – |
| c1ccc(CCNc2nc3c(-c4nc[nH]n4)cccc3c3cnccc23)cc1 | > 10000 | > 10000 | < 500 | < 500 | < 100 | < 10000 | < 1000 | – |
| NS(=O)(=O)c1cccc(Nc2nc3c(-c4nc[nH]n4)cccc3c3cnccc23)c1 | > 10000 | > 10000 | < 500 | < 500 | < 100 | > 10000 | < 1000 | – |
| NC(=O)c1cccc2c1nc(Nc1ccc(F)cc1)c1ccncc12 | < 5000 | < 1000 | < 500 | < 100 | < 100 | > 30000 | < 100 | – |
| CN(c1ccc(Cl)cc1)c1nc2c(-c3nc[nH]n3)cccc2c2cnccc12 | < 500 | < 5000 | < 5000 | < 1000 | < 100 | > 10000 | – | – |
| COCCNc1nc2c(-c3nc[nH]n3)cccc2c2cnccc12 | < 10000 | < 5000 | < 500 | < 100 | < 100 | < 10000 | < 100 | – |
| NC(=O)c1cccc2c1nc(Nc1cccc(F)c1)c1ccncc12 | < 1000 | < 1000 | – | < 120 | < 500 | < 1000 | < 100 | – |
| C#Cc1cccc(Nc2nc3cc(C(=O)O)ccc3c3cnccc23)c1 [drawing 998] | – | – | – | – | – | – | – | 11.8 |
| O=C(O)c1ccc2c(c1)nc(NCc1ccccc1)c1ccncc12 [drawing 1000] | – | – | – | – | – | – | – | 38 |
| C#Cc1cccc(Nc2nc3cc(C(=O)O)ccc3c3cnc(NCC4CCCO4)nc23)c1 (stereo not drawn) [drawing 1038] | – | – | – | – | – | – | – | 8.38 |
| C#Cc1cccc(Nc2nc3cc(C(=O)O)ccc3c3cnc(NCC4CC4)nc23)c1 [drawing 1039] | – | – | – | – | – | – | – | 2.63 |
| COC(=O)c1ccc2c(c1)nc(NC1CC1)c1nc(SCc3ccccc3Cl)ncc12 [drawing 1044] | – | – | – | – | – | – | – | 7.23 |
| O=C(O)c1ccc2c(c1)nc(NC1CC1)c1nc(SCc3ccccc3Cl)ncc12 [drawing 1047] | – | – | – | – | – | – | – | > 50 |
| NC(=O)c1cccc2c1nc(Nc1cccc(Cl)c1)c1ccncc12 [drawing 2246] | < 500 | < 1000 | – | < 100 | < 100 | < 10000 | < 5000 | – |

Other lines, results leading:

| IC50 (K-562) [nM] | IC50 [1] [nM] | IC50 (PIM2) [nM] | IC50 (MV-4-11) [nM] | IC50 (recombinant human PIM1) [nM] | IC50 (MDAMB231 [2]) [nM] | IC50 (phosphoBAD ser 112) [nM] | IC50 (MDAMB231 [3]) [µM] | Structure (SMILES) |
| --- | --- | --- | --- | --- | --- | --- | --- | --- |
| < 500 | < 5000 | < 100 | < 100 | < 100 | > 10000 | < 100 | – | Cc1cc(F)ccc1Nc1nc2c(-c3nnc[nH]3)cccc2c2cnccc12 |
| < 5000 | < 1000 | < 100 | < 100 | < 100 | < 1000 | < 1000 | – | Fc1ccc(Cl)cc1Nc1nc2c(-c3nnc[nH]3)cccc2c2cnccc12 |
| < 5000 | < 5000 | < 100 | < 100 | < 100 | < 5000 | < 100 | – | Fc1ccc(Nc2nc3c(-c4nc[nH]n4)cccc3c3cnccc23)c(F)c1 |
| < 500 | < 1000 | < 100 | < 100 | < 100 | < 5000 | < 100 | – | Fc1cccc(F)c1Nc1nc2c(-c3nnc[nH]3)cccc2c2cnccc12 |
| < 5000 | < 1000 | < 1000 | < 100 | < 100 | > 10000 | < 100 | – | c1ccc(Nc2nc3c(-c4nnc[nH]4)cccc3c3cnccc23)cc1 |
| < 5000 | < 1000 | < 500 | < 100 | < 100 | > 10000 | < 100 | – | CCOc1ccc(Nc2nc3c(-c4nnc[nH]4)cccc3c3cnccc23)cc1 |
| > 10000 | < 5000 | < 500 | < 500 | < 100 | < 5000 | < 500 | – | Fc1ccc(Nc2nc3c(-c4nnc[nH]4)cccc3c3cnccc23)cc1 |
| < 5000 | < 500 | < 100 | < 100 | < 100 | < 500 | < 100 | – | C#Cc1cccc(Nc2nc3c(-c4nnc[nH]4)cccc3c3cnccc23)c1 |
| < 1000 | < 1000 | < 100 | < 500 | < 100 | < 5000 | < 1000 | – | Clc1cccc(Nc2nc3c(-c4nnc[nH]4)cccc3c3cnccc23)c1 |
| < 5000 | < 1000 | < 1000 | < 500 | < 100 | < 1000 | < 100 | – | COc1cccc(Nc2nc3c(-c4nnc[nH]4)cccc3c3cnccc23)c1 |
| < 5000 | – | < 1000 | < 100 | < 100 | < 5000 | < 100 | – | COc1ccccc1Nc1nc2c(-c3nnc[nH]3)cccc2c2cnccc12 |
| > 10000 | < 500 | < 500 | < 100 | < 100 | > 10000 | < 5000 | – | Cc1cc(Nc2nc3c(-c4nnc[nH]4)cccc3c3cnccc23)ccc1F |
| > 10000 | < 5000 | < 500 | < 100 | < 100 | < 1000 | < 5000 | – | Fc1ccc(Nc2nc3c(-c4nc[nH]n4)cccc3c3cnccc23)cc1F |
| < 5000 | < 5000 | < 500 | < 100 | < 100 | < 5000 | < 1000 | – | Fc1ccc(Nc2nc3c(-c4nnc[nH]4)cccc3c3cnccc23)cc1Cl |
| < 5000 | < 500 | > 1100 | < 100 | < 100 | < 1000 | < 500 | – | Fc1cc(Cl)cc(Nc2nc3c(-c4nnc[nH]4)cccc3c3cnccc23)c1 |
| < 5000 | < 1000 | < 500 | < 500 | < 100 | > 10000 | < 1000 | – | Fc1cc(F)cc(Nc2nc3c(-c4nnc[nH]4)cccc3c3cnccc23)c1 |
| < 5000 | < 10000 | < 500 | < 500 | < 100 | > 10000 | < 5000 | – | COc1cc(Nc2nc3c(-c4nc[nH]n4)cccc3c3cnccc23)ccc1F |
| > 10000 | > 10000 | < 100 | < 500 | < 100 | > 10000 | < 100 | – | FC(F)(F)Oc1ccccc1Nc1nc2c(-c3nnc[nH]3)cccc2c2cnccc12 |
| > 10000 | < 500 | < 1000 | < 100 | < 500 | > 10000 | < 500 | – | OCCNc1nc2c(-c3nnc[nH]3)cccc2c2cnccc12 |
| > 10000 | < 1000 | < 1000 | < 100 | < 500 | < 10000 | < 500 | – | COCCOc1ccc(Nc2nc3c(-c4nnc[nH]4)cccc3c3cnccc23)cc1 |
| > 10000 | > 10000 | – | < 100 | < 500 | > 10000 | < 100 | – | COCCOc1cccc(Nc2nc3c(-c4nnc[nH]4)cccc3c3cnccc23)c1 |
| < 500 | < 5000 | < 1000 | < 500 | < 500 | > 10000 | < 5000 | – | FC(F)(F)Oc1cccc(Nc2nc3c(-c4nnc[nH]4)cccc3c3cnccc23)c1 |
